Laboratory results taken from US10738028B2, “Spiro three-membered ring, spiro five-membered ring peptide deformylase inhibitor and use thereof in antibacteria and anti-tumor” (priority 2016, dated 2020).
≈ marks a conversion by molar mass, not a printed value. Read-outs that look alike come from different tables or passages of the source.

Columns and labels:
[1] = due to instability in metabolism in the body; cited from earlier work
[2] = test system: Escherichia coli (including ESBLs, non-ESBLs); experiment: MIC, two-fold agar dilution (CLSI), clinical isolates; type: cell-based
Summary of the method: (§1)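 Test samples were assayed by the CLSI-recommended two-fold agar dilution method, and the minimum inhibitory concentration against each tested strain was determined.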

[3] = test system: Enterococcus faecalis (EFA); experiment: as above; type: cell-based
Summary of the method: as §1

[4] = test system: methicillin-sensitive Staphylococcus epidermidis (MSSE); experiment: as above; type: cell-based
Summary of the method: as §1

[5] = test system: methicillin-resistant Staphylococcus epidermidis (MRSE); experiment: as above; type: cell-based
Summary of the method: as §1

[6] = test system: methicillin-resistant Staphylococcus aureus (MRSA); experiment: as above; type: cell-based
Summary of the method: as §1

[7] = test system: methicillin-sensitive Staphylococcus aureus (MSSA); experiment: as above; type: cell-based
Summary of the method: as §1

[8] = test system: HCT-116 colorectal cancer cell line; experiment: CCK-8 proliferation inhibition; type: cell-based; conditions: Homo sapiens, HCT-116, 72 h, read-out: HCT116 inhibition rate/%
Summary of the method: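 2000 cells/well, McCoy's 5A + 10% newborn bovine serum; overnight attach, 37° C./5% CO2. Cpd from DMSO stock diluted in medium, 72 h. Readout: CCK-8 (1:10). Ctrl 1‰ DMSO.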

[9] = test system: methemoglobin in blood samples of three healthy volunteers; experiment: Toxicity on methemoglobin in vitro (whole blood with S9 and NADPH, absorbance at 630 nm); type: cell-based, human; conditions: 500 μM compound; whole blood + S9 + NADPH; 5 hours at 37° C.
Summary of the method: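 Fresh EDTA whole blood from three healthy volunteers incubated 5 h at 37 °C with human liver S9 (2 mg/mL), NADPH-generating system and compound at 500 μM final. Lysed in 1% Triton X-100; MetHb % from 630 nm absorbance relative to ferricyanide-oxidized blood.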

the test strains = experiment: MIC against the test strains (strain not given); type: cell-based; conditions: read-out: MIC (azole amide bioisosteres)
Source text: 1. The invention adopts the two-fold agar dilution method recommended by the operating procedure of antimicrobial susceptibility testing set by American Clinical and Laboratory Standards Institute (CLSI) to determine the Minimum Inhibitory Concentration (MIC) of the test samples against the tested strains.

[10] = test system: Moraxella catarrhalis (BCA); experiment: MIC, two-fold agar dilution (CLSI), clinical isolates; type: cell-based
Summary of the method: as §1

[11] = test system: Enterococcus faecium (EFM); experiment: as above; type: cell-based
Summary of the method: as §1

[12] = test system: Streptococcus pneoumoniae (SPN); experiment: as above; type: cell-based
Summary of the method: as §1

[13] = at a high dose; Clin. Pharmacol. Ther. 2011, 90, 256; cited from earlier work
[14] = strain printed MRSA 14-1 (second line of that name, r23, before MRSE 14-2)

SMILES: CCCCC[C@H](CC(=O)NO)C(=O)N[C@H](C(=O)N1CCC[C@H]1CO)C(C)C [Actinonin]
- activity in vivo [1]: no activity in vivo

SMILES: CCCC[C@H](CN(O)C=O)C(=O)N1CC2(CC2)C[C@H]1c1nnc(-c2ccccn2)o1 [Example 12, N-hydroxy-N—((R)-2-((S)-6-(5-(pyridin-2-yl)-1,3,4-oxadiazol-2-yl)-5-azaspiro[2.4]heptane-5-carbonyl)hexyl)carboxamide]
- MIC (anti-bacterial activity) ([2]; strain ECO+ 14-1): 0.5 µg/mL (≈ 1.21 µM)
- MIC (anti-bacterial activity) ([2]; strain ECO+ 14-2): 64 µg/mL (≈ 155 µM)
- MIC (anti-bacterial activity) ([2]; strain ECO− 14-1): 128 µg/mL (≈ 310 µM)
- MIC (anti-bacterial activity) ([2]; strain ECO− 14-2): 64 µg/mL (≈ 155 µM)
- MIC (anti-bacterial activity) ([3]; strain EFA 14-1): 4 µg/mL (≈ 9.67 µM)
- MIC (anti-bacterial activity) ([3]; strain EFA 14-2): 8 µg/mL (≈ 19.3 µM)
- MIC (anti-bacterial activity) ([3]; strain EFA 14-3): 8 µg/mL (≈ 19.3 µM)
- MIC (anti-bacterial activity) ([3]; strain EFA 14-5): 8 µg/mL (≈ 19.3 µM)
- MIC (anti-bacterial activity) ([4]; strain MSSE 14-1): 1 µg/mL (≈ 2.42 µM)
- MIC (anti-bacterial activity) ([4]; strain MSSE 14-2): 1 µg/mL (≈ 2.42 µM)
- MIC (anti-bacterial activity) ([4]; strain MSSE 14-3): 0.5 µg/mL (≈ 1.21 µM)
- MIC (anti-bacterial activity) ([4]; strain MSSE 14-4): 1 µg/mL (≈ 2.42 µM)
- MIC (anti-bacterial activity) ([5]; strain MRSE 14-2): 0.5 µg/mL (≈ 1.21 µM)
- MIC (anti-bacterial activity) ([5]; strain MRSE 14-3): 0.5 µg/mL (≈ 1.21 µM)
- MIC (anti-bacterial activity) ([5]; strain MRSE 14-4): 4 µg/mL (≈ 9.67 µM)
- MIC (anti-bacterial activity) ([6]; strain MRSA 14-1): 4 µg/mL (≈ 9.67 µM)
- MIC (anti-bacterial activity) ([6]; strain MRSA 14-2): 4 µg/mL (≈ 9.67 µM)
- MIC (anti-bacterial activity) ([6]; strain MRSA 14-4): 4 µg/mL (≈ 9.67 µM)
- MIC (anti-bacterial activity) ([6]; strain MRSA 14-5): 2 µg/mL (≈ 4.84 µM)
- MIC (anti-bacterial activity) [6, 14]: 1 µg/mL (≈ 2.42 µM)
- MIC (anti-bacterial activity) ([7]; strain MSSA 14-1): 4 µg/mL (≈ 9.67 µM)
- MIC (anti-bacterial activity) ([7]; strain MSSA 14-2): 2 µg/mL (≈ 4.84 µM)
- MIC (anti-bacterial activity) ([7]; strain MSSA 14-3): 2 µg/mL (≈ 4.84 µM)
- MIC (anti-bacterial activity) ([7]; strain MSSA 14-4): 2 µg/mL (≈ 4.84 µM)
- inhibition at 30 µM ([8]; concentration of 30 μM, 72 hours, CCK-8): 13%
- MetHb % (n = 3) [9]: 1.22 ± 0.02%
- MIC (the test strains): 0.5 to 2 µg/mL (≈ 1.21 to 4.84 µM)

SMILES: CCCC[C@H](CN(O)C=O)C(=O)N1CC2(CC2)C[C@H]1c1nnc2ccccn12 [Example 13, N—((R)-2-((S)-6-([1,2,4]triazole[4,3-a]pyridin-3-yl)-5-azaspiro[2.4]heptane-5-carbonyl)hexyl)-N-hydroxyamide]
- MIC (anti-bacterial activity) ([2]; strain ECO+ 14-1): 2 µg/mL (≈ 5.19 µM)
- MIC (anti-bacterial activity) ([2]; strain ECO+ 14-2): 128 µg/mL (≈ 332 µM)
- MIC (anti-bacterial activity) ([2]; strain ECO− 14-1): 128 µg/mL (≈ 332 µM)
- MIC (anti-bacterial activity) ([2]; strain ECO− 14-2): 128 µg/mL (≈ 332 µM)
- MIC (anti-bacterial activity) ([3]; strain EFA 14-1): 4 µg/mL (≈ 10.4 µM)
- MIC (anti-bacterial activity) ([3]; strain EFA 14-2): 8 µg/mL (≈ 20.8 µM)
- MIC (anti-bacterial activity) ([3]; strain EFA 14-3): 8 µg/mL (≈ 20.8 µM)
- MIC (anti-bacterial activity) ([3]; strain EFA 14-5): 8 µg/mL (≈ 20.8 µM)
- MIC (anti-bacterial activity) ([4]; strain MSSE 14-1): 0.25 µg/mL (≈ 0.649 µM)
- MIC (anti-bacterial activity) ([4]; strain MSSE 14-2): 0.5 µg/mL (≈ 1.3 µM)
- MIC (anti-bacterial activity) ([4]; strain MSSE 14-3): 0.5 µg/mL (≈ 1.3 µM)
- MIC (anti-bacterial activity) ([4]; strain MSSE 14-4): 0.5 µg/mL (≈ 1.3 µM)
- MIC (anti-bacterial activity) ([5]; strain MRSE 14-2): 0.5 µg/mL (≈ 1.3 µM)
- MIC (anti-bacterial activity) ([5]; strain MRSE 14-3): 0.25 µg/mL (≈ 0.649 µM)
- MIC (anti-bacterial activity) ([5]; strain MRSE 14-4): 1 µg/mL (≈ 2.59 µM)
- MIC (anti-bacterial activity) ([6]; strain MRSA 14-1): 1 µg/mL (≈ 2.59 µM)
- MIC (anti-bacterial activity) ([6]; strain MRSA 14-2): 1 µg/mL (≈ 2.59 µM)
- MIC (anti-bacterial activity) ([6]; strain MRSA 14-4): 1 µg/mL (≈ 2.59 µM)
- MIC (anti-bacterial activity) ([6]; strain MRSA 14-5): 1 µg/mL (≈ 2.59 µM)
- MIC (anti-bacterial activity) [6, 14]: 0.5 µg/mL (≈ 1.3 µM)
- MIC (anti-bacterial activity) ([7]; strain MSSA 14-1): 1 µg/mL (≈ 2.59 µM)
- MIC (anti-bacterial activity) ([7]; strain MSSA 14-2): 1 µg/mL (≈ 2.59 µM)
- MIC (anti-bacterial activity) ([7]; strain MSSA 14-3): 1 µg/mL (≈ 2.59 µM)
- MIC (anti-bacterial activity) ([7]; strain MSSA 14-4): 1 µg/mL (≈ 2.59 µM)
- inhibition at 30 µM [8]: 13%
- MetHb % (n = 3) [9]: 1.15 ± 0.06%
- MIC (the test strains): 0.5 to 2 µg/mL (≈ 1.3 to 5.19 µM)

SMILES: CCCC[C@H](CN(O)C=O)C(=O)N1CCC[C@H]1C(=O)Nc1ccc(F)c[n+]1[O-] [LBM415, reference compound]
- MIC ([10]; Moraxella catarrhalis, 7 clinical isolates, range over strains, read-out: Moraxella catarrhalis (n = 7) MIC): 0.5 to 2 µg/mL (≈ 1.26 to 5.05 µM)
- Anti-bacterial activity (MIC) ([10]; strain BCA 14-1): 2 µg/mL
- Anti-bacterial activity (MIC) ([10]; strain BCA 14-4): 2 µg/mL
- Anti-bacterial activity (MIC) ([10]; strain BCA 14-5): 1 µg/mL
- Anti-bacterial activity (MIC) ([10]; strain BCA 14-6): 2 µg/mL
- Anti-bacterial activity (MIC) ([10]; strain BCA 14-7): 0.5 µg/mL
- Anti-bacterial activity (MIC) ([10]; strain BCA 14-8): 0.5 µg/mL
- Anti-bacterial activity (MIC) ([10]; strain BCA 14-10): 0.5 µg/mL
- Anti-bacterial activity (MIC) ([2]; strain ECO+ 15-1): 64 µg/mL
- Anti-bacterial activity (MIC) ([2]; strain ECO+ 15-2): 64 µg/mL
- Anti-bacterial activity (MIC) ([2]; strain ECO+ 15-3): 64 µg/mL
- Anti-bacterial activity (MIC) ([2]; strain ECO+ 15-4): 64 µg/mL
- Anti-bacterial activity (MIC) ([2]; strain ECO− 15-1): 64 µg/mL
- Anti-bacterial activity (MIC) ([2]; strain ECO− 15-2): 64 µg/mL
- Anti-bacterial activity (MIC) ([2]; strain ECO− 15-3): 64 µg/mL
- Anti-bacterial activity (MIC) ([2]; strain ECO− 15-4): 64 µg/mL
- Anti-bacterial activity (MIC) ([3]; strain EFA 15-1): 2 µg/mL
- Anti-bacterial activity (MIC) ([3]; strain EFA 15-2): 2 µg/mL
- Anti-bacterial activity (MIC) ([3]; strain EFA 15-3): 2 µg/mL
- Anti-bacterial activity (MIC) ([3]; strain EFA 15-4): 2 µg/mL
- Anti-bacterial activity (MIC) ([3]; strain EFA 15-5): 2 µg/mL
- Anti-bacterial activity (MIC) ([3]; strain EFA 15-6): 128 µg/mL
- Anti-bacterial activity (MIC) ([3]; strain EFA 15-9): 128 µg/mL
- Anti-bacterial activity (MIC) ([11]; strain EFM 15-1): 2 µg/mL
- Anti-bacterial activity (MIC) ([11]; strain EFM 15-2): 2 µg/mL
- Anti-bacterial activity (MIC) ([11]; strain EFM 15-3): 4 µg/mL
- Anti-bacterial activity (MIC) ([11]; strain EFM 15-4): 8 µg/mL
- Anti-bacterial activity (MIC) ([11]; strain EFM 15-5): 4 µg/mL
- Anti-bacterial activity (MIC) ([11]; strain EFM 15-6): 4 µg/mL
- Anti-bacterial activity (MIC) ([4]; strain MSSE 15-3): 0.06 µg/mL
- Anti-bacterial activity (MIC) ([4]; strain MSSE 15-4): 0.5 µg/mL
- Anti-bacterial activity (MIC) ([4]; strain MSSE 15-5): 0.06 µg/mL
- Anti-bacterial activity (MIC) ([4]; strain MSSE 15-6): 128 µg/mL
- Anti-bacterial activity (MIC) ([12]; strain SPN 16-2): 2 µg/mL
- Anti-bacterial activity (MIC) ([12]; strain SPN 16-4): 2 µg/mL
- Anti-bacterial activity (MIC) ([5]; strain MRSE 15-1): 0.125 µg/mL
- Anti-bacterial activity (MIC) ([5]; strain MRSE 15-2): 0.125 µg/mL
- Anti-bacterial activity (MIC) ([5]; strain MRSE 15-3): 0.06 µg/mL
- Anti-bacterial activity (MIC) ([5]; strain MRSE 15-7): 0.125 µg/mL
- MIC ([6]; Staphylococcus aureus, MRSA, range over strains, read-out: minimum inhibitory concentration MIC against methicillin-resistant Staphylococcus (MRSA)): 0.5 to 1 µg/mL (≈ 1.26 to 2.52 µM)
- Anti-bacterial activity (MIC) ([6]; strain MRSA 15-1): 1 µg/mL
- Anti-bacterial activity (MIC) ([6]; strain MRSA 15-2): 1 µg/mL
- Anti-bacterial activity (MIC) ([6]; strain MRSA 15-3): 1 µg/mL
- Anti-bacterial activity (MIC) ([6]; strain MRSA 15-4): 0.5 µg/mL
- Anti-bacterial activity (MIC) ([7]; strain MSSA 15-3): 0.5 µg/mL
- Anti-bacterial activity (MIC) ([7]; strain MSSA 15-4): 0.5 µg/mL
- Anti-bacterial activity (MIC) ([7]; strain MSSA 15-5): 0.5 µg/mL
- Anti-bacterial activity (MIC) ([7]; strain MSSA 15-6): 0.5 µg/mL
- MetHb % (n = 3) [9]: 3.05 ± 0.01%
- adverse effect in Phase I clinical trial [13]: could cause methemoglobinemia at a high dose
